Patent US20250185666A1, “Root-Targeted Delivery of Agrochemicals using Natural Microbial Carriers” (priority 2023, published 2025)
Where “and” joins values, the source holds several entries; their conditions need not be identical. Equal entries are not always repeated. Marks after values point to notes of the source that are not given here.

Experiments:
UC-1 cultures = assay: Screen of candidate formulations for operational toxicity to UC-1 cultures; conditions: concentrated formulation
Description: Finally, candidate formulations were screened for operational toxicity to UC-1 cultures (i.e., live protists in a concentrated formulation should remain viable and actively moving). […] Both agrochemicals were used in their like-commercial formulations, which is a proprietary blend containing biocides and other ingredients needed to keep the agrochemical suspended and maintain performance.

[1] = Transport of 14C-labeled Chlorantraniliprole in maize (autoradiography, combustion analysis); conditions: maize (Zea mays L.), in vivo, 7 d
Procedure: A scaled-up version of the μ-rhizoslide was developed to work with maize. First, ^14C-labeled agrochemical was dissolved in acetone, spiked onto the wall of a glass sample vial, and the acetone evaporated. Un-radiolabeled agrochemical formulation was then added to the vial and sonicated for 20 min to distribute the ^14C-labeled material into the formulation. The formulation was then mixed with Page's Saline containing heat-killed E. coli, or with Page's Saline containing both protists and heat-killed E. coli to prepare the seed treatments formulation. As described before, the ^14C-labeled seed treatment formulations were allowed to rest in darkness for 24 h prior to application. Final radioactivity was measured at approximately 300,000 DPM per individual seed treatment. Pots were filled, and seeds planted and treated as described above. Plants were harvested at 1 week due to restricted space for work with radiolabeled material. […]
A similar experiment was conducted using ^14C-labeled Chlorantraniliprole, differing in the allocated growth period (7 vs 14 d), watering schedule (due to limitations of radioactive containment), and pot (3D printed device optimized for radio-detection vs traditional 4.5″ pot). Radioactivity in both the plant material and the soil were measured before combustion analysis was conducted on the plant material.

Spodoptera frugiperda = assay: Maize leaf fall armyworm damage assay after seed treatment (feeding damage and FAW mortality); format: in vivo; design: Regression for feeding damage by leaf segment, Leaf 3 Middle / Regression for feeding damage by leaf segment, Leaf 3 Tip / Regression for feeding damage by leaf segment, Leaf 4 Middle / Regression for feeding damage by leaf segment, Leaf 4 Tip / Regression for feeding damage by leaf segment, Leaf 5 Middle / Regression for feeding damage by leaf segment, Leaf 5 Tip: unit not given here; conditions: for Regression for feeding damage by leaf segment, Leaf 3 Middle / Regression for feeding damage by leaf segment, Leaf 3 Tip / Regression for feeding damage by leaf segment, Leaf 4 Middle / Regression for feeding damage by leaf segment, Leaf 4 Tip / Regression for feeding damage by leaf segment, Leaf 5 Middle / Regression for feeding damage by leaf segment, Leaf 5 Tip: coefficient vs Baseline; for Regression for FAW mortality rate (coefficient) / Regression for overall feeding damage (coefficient): vs Baseline, controls for experimental run and tray location; for Regression for FAW mortality rate (coefficient): across six leaf segments per plant; for Regression for overall feeding damage (coefficient): averaged across six leaf segments per plant
Procedure: An experiment was designed to measure any systemic effects of soil protists in the presence and absence of (agrochemical) insecticide on pest damage resistance for plants grown from seeds. The experiments consisted of two stages: the growth stage and the pest stage. In the growth stage, maize seeds were treated individually with one of six mixtures containing bacteria, protists, and or/agrochemicals. All treatments included heat-killed bacteria, the food source for protists (protozoa). Additional potential components of each treatment were one of two agrochemicals, or soil protists, or one of two agrochemicals plus soil protists (Table 1). Treated seeds were germinated and grown in soil-filled pots in a greenhouse. Plants were grown in surplus quantities and down-selected to 48 representative plants per treatment for each experimental run (Table 2).
In the pest stage, three individual leaves were harvested from each plant, then the Tip and Middle segments of said leaves were collected. Each of the six leaf segments from the plant were placed in individual tray wells and challenged by a single insect larva, as explained further below.
Formulations for seed treatments (Table 1) were prepared in Page's Saline 24 h prior to inoculation and held at 23° C. in darkness. Prior to application, each formulation was vortexed for 30 sec then a small aliquot (50 μL) was added directly on top of each exposed seed during planting. Based on our prior experience, this small-volume-aliquot performs similarly to more conventionally formulated seed coatings, enabling early-stage screening of experimental formulations that are available only in limited quantities.
For each experimental run, 240 pots (10-cm, TLC Square Form Pots, HC Companies) were first filled with dry, steam pasteurized screened field soil (Kalamazoo, Michigan; Coloma loamy sand). The soil was misted with water with an automated system to reach field capacity in the Corteva Agriscience greenhouse located in Indianapolis, IN for at least 4 d prior to planting. Next, 3.8 cm deep, 2 cm wide holes were created in the center of each soil-filled pots, and a single seed was placed tip cap side down 3.8 cm below the soil surface. Each seed was immediately inoculated with a seed treatment (described above, n=60 per treatment). Treated pots were then randomized in the greenhouse to reduce systematic error (FIG. 1A). The greenhouse averaged 23° C. (maximum of 30° C. day and minimum of 19° C. at night). The plants received 100 mL water from the automated system, split over 49 passes, during the first week after planting, and 200 mL water split over 98 passes during the second week after planting.
Leaf segments were harvested on 48 representative plants selected from the 60 pots per treatment (FIG. 1A). Trays were filled in a semi-random fashion with less optimal plants at the end of tray 3 and the most underdeveloped plants being discarded. Plants were numbered as they were selected during the Leaf 3 harvest, and tracked through the harvest of Leaves 4 and 5 for robustness. Maize leaves are labelled according to the order they sprout. Maize was allowed to grow for 10 d before harvesting Leaf 3 and left for another 4 d (14 d total) before harvesting Leave 4, 5 (FIG. 1B). Leaves were segmented with the distal 3.8 cm labelled as Tip. Leaf Middle segments were harvested as a 3.8-cm segment from the middle of the leaf. For smaller leaves (such as the earlier-harvested Leaf 3), the Middle abutted the Tip. For larger leaves (4th and 5th), any section between Tip and Middle segments was discarded. For agrochemicals which translocate, such as those tested here, the agrochemical accumulates in the leaf Tips. By testing both leaf Tip and Middle, the relative amount of agrochemical moved by phloem or xylem transport since the leaf sprouted can be measured (Tip) along with the agrochemical in the process of transportation during harvest (Middle). […]

[2] = Table 6 (Chlorantraniliprole data set)

In the case of CNC(=O)c1cc(Cl)cc(C)c1NC(=O)c1cc(Br)nn1-c1ncccc1Cl [Chlorantraniliprole, chlorantraniliprole], the “Operational toxicity to UC-1 cultures (live protists remain viable and actively moving)” value (UC-1 cultures) was “satisfied all criteria”, the “Distribution of 14C-labeled Chlorantraniliprole in plant parts” value [1] was “higher concentration of Chlorantraniliprole in earlier parts (stem, Leaf 1)” and the “Regression for feeding damage by leaf segment, Leaf 3 Middle” value (Spodoptera frugiperda; [2]) was −36.100***. The “Regression for feeding damage by leaf segment, Leaf 3 Tip” value (Spodoptera frugiperda; [2]) was −65.841***, the “Regression for feeding damage by leaf segment, Leaf 4 Middle” value (Spodoptera frugiperda; [2]) was −6.424** and the “Regression for feeding damage by leaf segment, Leaf 4 Tip” value (Spodoptera frugiperda; [2]) was −46.026***. For the same compound, the “Regression for feeding damage by leaf segment, Leaf 5 Middle” value (Spodoptera frugiperda; [2]) was −2.566, the “Regression for feeding damage by leaf segment, Leaf 5 Tip” value (Spodoptera frugiperda; [2]) was −34.783*** and the “Reduction of feeding damage from Baseline, Leaf 4 Middle” value (Spodoptera frugiperda; in vivo) was 7.2 percentage points. The “Reduction of feeding damage from Baseline, Leaf 5 Middle” value (Spodoptera frugiperda; in vivo) was 3.5 percentage points, the “Feeding damage, Leaf 4 Middle” value (Spodoptera frugiperda; leaf harvested 14 d) was 86% and 86.4% and the “Feeding damage, Leaf 4 Tip” value (Spodoptera frugiperda; leaf harvested 14 d) was 49%. The “Feeding damage, Leaf 5 Middle” value (Spodoptera frugiperda; leaf harvested 14 d) was 88%, the “Regression for FAW mortality rate (coefficient)” value (Spodoptera frugiperda) was 20.341*** and the “Regression for overall feeding damage (coefficient)” value (Spodoptera frugiperda) was −31.836***.
With Spinosad the “Regression for feeding damage by leaf segment, Leaf 3 Middle” value (Spodoptera frugiperda; Table 7 (Spinosad data set)) was −45.225***, the “Regression for feeding damage by leaf segment, Leaf 3 Tip” value (Spodoptera frugiperda; Table 7 (Spinosad data set)) was −59.140*** and the “Regression for feeding damage by leaf segment, Leaf 4 Middle” value (Spodoptera frugiperda; Table 7 (Spinosad data set)) was −40.880***. The “Regression for feeding damage by leaf segment, Leaf 4 Tip” value (Spodoptera frugiperda; Table 7 (Spinosad data set)) was −59.365***, the “Regression for feeding damage by leaf segment, Leaf 5 Middle” value (Spodoptera frugiperda; Table 7 (Spinosad data set)) was −10.627*** and the “Regression for feeding damage by leaf segment, Leaf 5 Tip” value (Spodoptera frugiperda; Table 7 (Spinosad data set)) was −29.736***. For the same compound, the “Reduction of feeding damage from Baseline, Leaf 4 Tip” value (Spodoptera frugiperda; in vivo) was 58.5 percentage points, the “Reduction of feeding damage from Baseline, Leaf 5 Middle” value (Spodoptera frugiperda; in vivo) was 9.5 percentage points and the “Feeding damage, Leaf 4 Tip” value (Spodoptera frugiperda; leaf harvested 14 d) was ~35.0%. For the same compound, the “Feeding damage, Leaf 5 Middle” value (Spodoptera frugiperda; leaf harvested 14 d) was ~82.2%, the “Regression for FAW mortality rate (coefficient)” value (Spodoptera frugiperda) was 33.342*** and the “Regression for overall feeding damage (coefficient)” value (Spodoptera frugiperda) was −39.981***.
